According to paper PMC7662226, “Discovery of Novel Indolealkylpiperazine Derivatives as Potent 5-HT1A Receptor Agonists for the Potential Future Treatment of Depression” (Molecules, 2020):

Assays:
Format in all cases: cell-based
human 5-HT2AR = target: T1, human 5-HT2AR (Homo sapiens, UniProt P28223); assay: Fluorometric Imaging Plate Reader (FLIPR) assay, 5-HT2AR; conditions: functional activity, calcium flux, human 5-HT2AR expressed by CHO-K1 cells; NA: no activity
T1 construct: expressed in transfected cells; host or cells: CHO-K1
Method: 1.2.2. Fluorometric Imaging Plate Reader (FLIPR) assay
The FLIPR assay was performed to evaluate the function of synthesized compounds to 5-HT2AR with human 5-HT2AR expressed by CHO-K1 cells. Reference compound for 5-HT2AR was […]
[…] After 15 min add 22.5 µl /well of inducer and calcium flux signal is measured. The IC50 values were calculated by nonlinear regression using a sigmoidal function.

human 5-HT1AR = target: T2, human 5-HT1AR (Homo sapiens, UniProt P08908); assay: Ultra Lance cAMP assay, 5-HT1AR; conditions: agonistic functional activity, human 5-HT1AR expressed by HEK-293 cells; NA: no activity
T2 construct: expressed in transfected cells; host or cells: HEK-293
T2 sequence (P08908 1-422): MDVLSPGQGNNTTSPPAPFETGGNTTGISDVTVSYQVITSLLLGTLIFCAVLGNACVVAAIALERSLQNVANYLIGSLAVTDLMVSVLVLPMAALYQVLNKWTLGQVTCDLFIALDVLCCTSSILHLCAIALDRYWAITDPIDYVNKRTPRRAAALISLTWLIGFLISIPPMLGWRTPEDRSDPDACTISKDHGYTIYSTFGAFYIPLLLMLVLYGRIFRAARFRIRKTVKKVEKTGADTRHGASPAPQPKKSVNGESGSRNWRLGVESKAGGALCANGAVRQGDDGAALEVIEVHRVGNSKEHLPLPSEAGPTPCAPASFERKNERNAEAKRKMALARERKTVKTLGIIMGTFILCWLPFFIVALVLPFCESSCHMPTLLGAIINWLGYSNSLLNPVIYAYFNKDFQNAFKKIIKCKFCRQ
Method: (§1) 1.2 Biological Evaluation
(§2) 1.2.1. Ultra Lance cAMP assay
(§3) The Ultra Lance cAMP assay was performed to evaluate the function of synthesized compounds to D2R and 5-HT1AR with human D2R and 5-HT1AR expressed by HEK-293 cells.
(§4) […] The IC50 values were calculated by nonlinear regression using a sigmoidal function.

human D2R = target: T3, human D2R (Homo sapiens, UniProt P14416); assay: Ultra Lance cAMP assay, D2R; conditions: functional activity, human D2R expressed by HEK-293 cells; NA: no activity
T3 construct: expressed in transfected cells; host or cells: HEK-293
Method: as §1, §2, §3, §4

T1 sequence (P28223 whole entry): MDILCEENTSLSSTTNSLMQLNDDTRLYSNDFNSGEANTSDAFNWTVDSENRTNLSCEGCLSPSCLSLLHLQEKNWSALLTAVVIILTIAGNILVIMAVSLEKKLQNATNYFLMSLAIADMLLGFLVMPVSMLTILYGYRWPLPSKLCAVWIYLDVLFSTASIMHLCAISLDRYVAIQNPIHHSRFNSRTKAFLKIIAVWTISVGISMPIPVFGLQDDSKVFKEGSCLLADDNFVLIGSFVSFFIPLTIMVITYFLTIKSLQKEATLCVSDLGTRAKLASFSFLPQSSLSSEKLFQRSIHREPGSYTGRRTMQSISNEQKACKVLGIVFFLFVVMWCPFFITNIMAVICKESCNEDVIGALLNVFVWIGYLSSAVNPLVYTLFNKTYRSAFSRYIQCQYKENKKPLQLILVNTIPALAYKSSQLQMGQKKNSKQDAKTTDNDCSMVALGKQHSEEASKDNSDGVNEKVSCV
T3 sequence (P14416 whole entry): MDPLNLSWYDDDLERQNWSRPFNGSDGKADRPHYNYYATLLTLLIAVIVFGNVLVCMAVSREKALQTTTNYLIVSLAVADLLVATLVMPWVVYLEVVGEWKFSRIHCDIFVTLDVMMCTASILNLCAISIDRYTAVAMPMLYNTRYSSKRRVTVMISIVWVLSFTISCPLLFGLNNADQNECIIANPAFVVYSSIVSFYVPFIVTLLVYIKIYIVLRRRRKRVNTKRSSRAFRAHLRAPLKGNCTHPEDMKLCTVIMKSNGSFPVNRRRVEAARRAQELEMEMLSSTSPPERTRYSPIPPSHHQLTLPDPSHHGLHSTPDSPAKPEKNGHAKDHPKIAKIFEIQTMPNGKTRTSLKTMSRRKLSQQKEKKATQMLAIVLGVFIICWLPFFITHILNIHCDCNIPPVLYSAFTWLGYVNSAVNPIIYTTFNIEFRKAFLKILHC

SMILES	IC50 (human 5-HT2AR) [nM]	EC50 (human 5-HT1AR) [nM]	IC50 (human D2R) [nM]	5-HT1AR EC50 (human 5-HT1AR)
CCOc1ccc(S(=O)(=O)NCC2CC2)cc1C(=O)N1CCN(CCCc2c[nH]c3ccc(C#N)cc23)CC1 [Compound 13p, 3-(4-(3-(5-cyano-1H-indol-3-yl)propyl)piperazine-1-carbonyl)-N-(cyclopropylmethyl)-4-ethoxybenzenesulfonamide]	4730	48.2	–	–
CNS(=O)(=O)c1ccc(OCC2CC2)c(C(=O)N2CCN(CCCc3c[nH]c4ccc(C#N)cc34)CC2)c1 [Compound 13f]	1100	23.6	–	–
CC(Oc1ccc(S(C)(=O)=O)cc1C(=O)N1CCN(CCCc2c[nH]c3ccc(C#N)cc23)CC1)C(F)(F)F (centres unmarked) [Compound 13c]	1140	197	–	–
N#Cc1ccc2[nH]cc(CCCN3CCN(C(=O)c4cc(S(=O)(=O)NCC5CC5)ccc4OC4COC4)CC3)c2c1 [Compound 13q, 3-(4-(3-(5-cyano-1H-indol-3-yl)propyl)piperazine-1-carbonyl)-N-(cyclopropylmethyl)-4-(oxetan-3-yloxy)benzenesulfonamide]	–	175	–	–
CNS(=O)(=O)c1ccc(OCC2COC2)c(C(=O)N2CCN(CCCc3c[nH]c4ccc(C#N)cc34)CC2)c1 [Compound 13i]	4190	400	–	–
CC(C)Oc1ccc(S(=O)(=O)NCC2CC2)cc1C(=O)N1CCN(CCCc2c[nH]c3ccc(C#N)cc23)CC1 [Compound 13o, 3-(4-(3-(5-cyano-1H-indol-3-yl)propyl)piperazine-1-carbonyl)-N-(cyclopropylmethyl)-4-isopropoxybenzenesulfonamide]	–	22.8	–	–
N#Cc1ccc2[nH]cc(CCCN3CCN(C(=O)c4cc(S(=O)(=O)NCC5CC5)ccc4OCC4CC4)CC3)c2c1 [Compound 13g]	2280	5.35	4310	–
CNS(=O)(=O)c1ccc(OC(C)C)c(C(=O)N2CCN(CCCc3c[nH]c4ccc(C#N)cc34)CC2)c1 [Compound 13j]	–	–	–	completely lose activity
CS(=O)(=O)c1ccc(OCC2CC2)c(C(=O)N2CCN(CCCc3c[nH]c4ccc(C#N)cc34)CC2)c1 [Compound 13d]	887	88	–	–
CS(=O)(=O)c1ccc(N2CCOCC2)c(C(=O)N2CCN(CCCc3c[nH]c4ccc(C#N)cc34)CC2)c1 [Compound 13b]	–	990	–	–
CCS(=O)(=O)c1ccc(OCC2CC2)c(C(=O)N2CCN(CCCc3c[nH]c4ccc(C#N)cc34)CC2)c1 [Compound 13e]	1290	49.2	> 5000	–
N#Cc1ccc2[nH]cc(CCCN3CCN(C(=O)c4cc(S(=O)(=O)NCC5CC5)ccc4OCC4COC4)CC3)c2c1 [Compound 13n]	> 5000	31.6	–	–
CS(=O)(=O)c1ccc(F)c(C(=O)N2CCN(CCCc3c[nH]c4ccc(C#N)cc34)CC2)c1 [Compound 13a]	> 5000	168	–	–
CNS(=O)(=O)c1ccc(OC2COC2)c(C(=O)N2CCN(CCCc3c[nH]c4ccc(C#N)cc34)CC2)c1 [Compound 13l]	–	524	–	–
CCOc1ccc(S(=O)(=O)NC)cc1C(=O)N1CCN(CCCc2c[nH]c3ccc(C#N)cc23)CC1 [Compound 13k]	1780	77.5	–	–
CNS(=O)(=O)c1ccc(OCC(C)C)c(C(=O)N2CCN(CCCc3c[nH]c4ccc(C#N)cc34)CC2)c1 [Compound 13h]	567	5.67	–	–
CC(C)COc1ccc(S(=O)(=O)NCC2CC2)cc1C(=O)N1CCN(CCCc2c[nH]c3ccc(C#N)cc23)CC1 [Compound 13m]	1530	1.01	> 5000	–
